Laboratory results reported in article PMC3479139, “Diverse Small Molecule Inhibitors of Human Apurinic/Apyrimidinic Endonuclease APE1 Identified from a Screen of a Large Public Collection” (PLoS ONE, 2012).

Key:
APE1 [1] = target: T1, APE1 (Homo sapiens, UniProt P27695); assay: Gel-based radiotracer (32P) APE1 incision assay; type: biochemical; parameters: concentration or dose not given beside the values; settings: percent incision shown; entries 1-112;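 note: APE1 incision reactions ran 5 min at 37 °C, with cleaved product and intact substrate resolved electrophoretically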
T1 construct: made in house
T1 sequence (P27695 whole entry): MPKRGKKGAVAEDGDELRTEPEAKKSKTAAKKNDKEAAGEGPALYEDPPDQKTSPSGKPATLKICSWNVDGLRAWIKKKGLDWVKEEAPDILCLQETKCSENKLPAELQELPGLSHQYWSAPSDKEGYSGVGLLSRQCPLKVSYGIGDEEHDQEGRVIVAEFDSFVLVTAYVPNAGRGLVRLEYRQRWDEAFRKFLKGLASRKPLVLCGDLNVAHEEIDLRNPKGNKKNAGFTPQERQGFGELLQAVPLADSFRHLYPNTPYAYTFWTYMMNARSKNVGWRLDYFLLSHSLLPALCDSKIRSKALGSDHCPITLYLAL

[2] = target: double-stranded 17-mer DNA fragment; assay: ThO (Thiazole Orange) DNA displacement assay; type: binding; settings: for IC50: read-out: ThO-DNA binding IC50;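 for all read-outs here: miniaturized displacement of the intercalating dye from unlabeled duplex DNA, used to flag nonspecific DNA binders, chiefly intercalators, groove binders may be missed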
APE1 [3] = target: T1, APE1; assay: Fluorescence polarization (FP) displacement assay of APE1 binding to AP-DNA probe; settings: read-out: FP IC50;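 note: TAMRA 5′-labeled duplex DNA with THF abasic site (5 nM) and APE1 (20 nM), Mg2+-free buffer, 15 min at room temperature, inhibition seen as lowered polarization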
APE1 [4] = target: T1, APE1; assay: Fluorogenic kinetic qHTS APE1 incision assay (primary screen and retest of cherrypicked samples); type: biochemical;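 note: purified APE1 cleaving a fluorophore/dark-quencher labelled 17-mer duplex DNA bearing a tetrahydrofuran AP site, fluorescence rise followed kinetically over the first 2 min, inhibition normalized to controls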
E. coli Endo IV = target: T2, E. coli Endo IV (Escherichia coli, UniProt P0A6C1); assay: E. coli Endo IV profiling counterscreen; type: biochemical; settings: read-out: EndoIV IC50;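 note: selectivity counterscreen of candidate APE1 inhibitors against the bacterial endonuclease Endo IV, run in the same assay format as the primary APE1 high-throughput screen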
T2 construct: made in house
Description: In order to screen out nonselective compounds, such as non-specific DNA binders and inhibitors of related enzymes, we used a miniaturized ThO DNA displacement assay and a counterscreen against the bacterial endonuclease E. coli Endo IV, respectively, following the previously published protocols [21].
To probe the selectivity of the candidate APE1 inhibitors, we tested them against E. coli EndoIV [36], employing the same assay as used in the HTS.

[5] = initial quantitative high-throughput screen, read-out: APE1 qHTS IC50
[6] = retest of cherrypicked sample, read-out: APE1 Retest IC50

Row | SMILES | Radiotracer Assay (%Activity) (APE1 [1]) | IC50 [2] | IC50 (APE1 [3]) | IC50 (APE1 [4]; [5]) | IC50 (APE1 [4]; [6]) | IC50 (E. coli Endo IV) | ThO assay signal behaviour (autofluorescence interference) [2] | IC50 (APE1 [4]; control on every assay plate, average over screen, read-out: IC50 of intra-plate control titration)
1 | O=C(O)CCCN1C(=O)/C(=C/C=C/c2ccco2)SC1=S [MLS000778631] | 41% | > 57 µM | > 57 µM | 35.5 µM | 5 µM | > 57 µM |  | 
2 | CC1(CC(=O)N/N=C/c2cc([N+](=O)[O-])c(O)cc2O)OCCO1 [MLS000548032] | 13% | > 57 µM | > 57 µM | 14.1 µM | 12.6 µM | > 57 µM |  | 
3 | COc1cc(O)c2c(c1)oc(=O)c1c3cc(O)c(O)cc3oc21 [NCGC00163667] | 8.4% | 10 µM | > 57 µM | 10 µM | 4.4 µM | > 57 µM |  | 
4 | O=C(O)c1ccc(-n2cccc2/C=C2/NC(=O)N(c3ccccc3)C2=O)cc1 [MLS000778414] | 37% | > 57 µM | 12.6 µM | 2.5 µM | 4 µM | > 57 µM |  | 
5 | COc1ccc2c(c1)c(=O)oc1cc(OCC(=O)NC3CCCCC3)ccc12 [MLS000594161] | 38% | > 57 µM | > 57 µM | 11.2 µM | 5.6 µM | > 57 µM |  | 
6 | CC(=O)[C@]1(O)Cc2c(O)c3c(c(O)c2[C@@H](O[C@H]2C[C@H](N)[C@H](O)[C@H](C)O2)C1)C(=O)c1ccccc1C3=O [NCGC00093976] | 4.6% |  | 3.2 µM | 19.9 µM | 14.1 µM | 25.1 µM | strong dose-dependent fluorescence signal increase | 
7 | O=C(/C=C/c1ccc(O)c(O)c1)O[C@H](Cc1ccc(O)c(O)c1)C(=O)O [MLS000697677] | 38% | > 57 µM | > 57 µM | 0.1 µM | 0.6 µM | > 57 µM |  | 
8 | O=C1C=CC2=C3c4cc(O)c(O)cc4CC3(O)COC2=C1O (centres unmarked) [NCGC00095664] | 4.1% | 11.2 µM | 15.8 µM | 0.1 µM | 0.1 µM | > 57 µM |  | 
9 | Cc1ccccc1N=C1NC(=O)/C(=C/c2cccn2-c2cccc(C(=O)O)c2)S1 [MLS000704580] | 7% | > 57 µM | > 57 µM | 17.8 µM | 11.2 µM | > 57 µM |  | 
10 | O=c1/c(=C/c2ccco2)sc2nc(-c3ccccc3Br)nn12 [MLS000039532] | 9% | > 57 µM | > 57 µM | 22.4 µM | 7.9 µM | > 57 µM |  | 
11 | O=C1NN(c2ccccc2)C(=O)/C1=C/c1ccc(-c2ccc(Cl)c(C(=O)O)c2)o1 [MLS000682903] | 37% | > 57 µM | 15.8 µM | 12.6 µM | 15.6 µM | > 57 µM |  | 
12 | COc1cc(N(C)C)cc(CN(C)CCc2ccc([N+](=O)[O-])cc2)c1O [NCGC00165741] | 10.6% | > 57 µM | > 57 µM | 3.2 µM | 0.3 µM | > 57 µM |  | 
13 | O=C(COC(=O)/C=C/c1ccco1)NCc1ccc2c(c1)OCO2 [MLS001006993] |  | > 57 µM |  |  |  | > 57 µM |  | 
14 | O=C(COC(=O)C1CC(=O)N(Cc2ccco2)C1)c1ccc(OC(=O)c2ccccc2)cc1 (centres unmarked) [MLS000548444] | 35% | > 57 µM |  |  |  | 10 µM |  | 
15 | O=C(COC(=O)/C=C/c1ccco1)NCc1ccco1 [MLS001004396] |  | > 57 µM |  |  |  | > 57 µM |  | 
16 | Cc1c(NS(=O)(=O)c2cc(C(=O)NCCN(C)C)ccc2Cl)c(=O)n(-c2ccccc2)n1C [MLS001175210] |  | > 57 µM |  |  |  | > 57 µM |  | 
17 | C=CCn1c(SCC(=O)Nc2sc3c(c2C#N)CCC(C)C3)nc2cc(C(=O)O)ccc2c1=O (centres unmarked) [MLS002251505] |  | > 57 µM |  |  |  | > 57 µM |  | 
18 | Cc1ccc(C)c(OCCn2ccnc2)c1 [MLS000974607] |  | > 57 µM |  |  |  | > 57 µM |  | 
19 | N[C@H](Cc1ccc(O)c(O)c1)C(=O)O [NCGC00093869] | 11.3% | > 57 µM |  | 1 µM | 3.5 µM | > 57 µM |  | 
20 | CN(CC(=O)Nc1cccc(F)c1)C(=O)c1cc(-c2ccco2)nc2ccccc12 [MLS001156482] |  | 40.8 µM |  |  |  | > 57 µM |  | 

Row | SMILES | Radiotracer Assay (%Activity) (APE1 [1]) | IC50 [2] | IC50 (APE1 [3]) | IC50 (APE1 [4]; [5]) | IC50 (APE1 [4]; [6]) | IC50 (E. coli Endo IV) | ThO assay signal behaviour (autofluorescence interference) [2] | IC50 (APE1 [4]; control on every assay plate, average over screen, read-out: IC50 of intra-plate control titration)
21 | O=C(/C=C/c1ccco1)OCC(=O)N1CCCCC1 [MLS002246602] |  | > 57 µM |  |  |  | > 57 µM |  | 
22 | O=C(Cc1ccc(S(=O)(=O)N2CCOCC2)s1)Nc1nc2c(s1)CCCC2 [MLS000567201] |  | 15.8 µM |  |  |  | > 57 µM |  | 
23 | O=C(COc1ccccc1[N+](=O)[O-])Nc1cccc(S(=O)(=O)NC2=NCCCCC2)c1 [MLS001078387] |  | > 57 µM |  |  |  | > 57 µM |  | 
24 | O=C(O)c1cc[c]([Sb](=[O])([OH])[OH])cc1[N+](=O)[O-] [NSC-13755, reference compound] |  |  |  |  |  |  |  | 0.035 µM
25 | COc1ccccc1NC(=O)COC(=O)c1cc2c(s1)CCC2 [MLS002161511] |  | > 57 µM |  |  |  | 18.2 µM |  | 
26 | Cc1ccc2c(=O)cc(C(=O)NCCc3ccc(S(N)(=O)=O)cc3)oc2c1 [MLS001216111] |  | 36.3 µM |  |  |  | > 57 µM |  | 
27 | O=[N+]([O-])c1ccc(Cl)c(-c2ccc(/C=N/n3cnnc3)o2)c1 [MLS001194618] |  | > 57 µM |  |  |  | > 57 µM |  | 
28 | CNS(=O)(=O)c1cccc(C(=O)OCC(=O)c2ccc[nH]2)c1 [MLS002163823] |  | > 57 µM |  |  |  | > 57 µM |  | 
29 | COc1cc(/C=C(\C#N)C(=O)Nc2cccc(C(=O)O)c2)ccc1OCc1ccc(Cl)cc1 [MLS001172702] |  | > 57 µM |  |  |  | > 57 µM |  | 
30 | CC(C)OCCOc1ccc2oc(-c3ccco3)cc(=O)c2c1 [MLS001163009] |  | > 57 µM |  |  |  | > 57 µM |  | 
31 | COc1ccc(S(=O)(=O)N2CCN(C(=O)C3COc4ccccc4O3)CC2)cc1 (centres unmarked) [MLS002159357] |  | > 57 µM |  |  |  | > 57 µM |  | 
32 | NS(=O)(=O)c1ccc(CCNC(=O)c2ccc3nccnc3c2)cc1 [MLS002252586] |  | > 57 µM |  |  |  | > 57 µM |  | 
33 | O=C(O)Cc1ccc(S(=O)(=O)N2CCCC2)s1 [MLS002245326] |  | > 57 µM |  |  |  | > 57 µM |  | 
34 | COc1ccc(CNC(=O)COC(=O)c2ccc(S(=O)(=O)NCc3ccco3)cc2)cc1 [MLS002252767] |  | > 57 µM |  |  |  | > 57 µM |  | 
35 | O=C(O)C1C2C=CC(C2)C1C(=O)Nc1ccccc1Br (centres unmarked) [MLS001008562] |  | > 57 µM |  |  |  | > 57 µM |  | 
36 | CC1(C)C(=O)CC[C@]2(C)C3C(=O)C=C4[C@H]5C[C@@](C)(C(=O)O)CC[C@]5(C)CC[C@]4(C)[C@]3(C)CC[C@@H]12 (some centres unmarked) [MLS000697684] |  | > 57 µM |  |  |  | > 57 µM |  | 
37 | O=C(CCC(=O)c1ccc(Oc2ccccc2)cc1)Nc1ccc(C(=O)O)cc1 [MLS001001328] |  | > 57 µM |  |  |  | > 57 µM |  | 
38 | COC(=O)c1c(C)[nH]c(C(=O)COc2ccc3ccc(=O)oc3c2)c1C [MLS002156353] |  |  |  |  |  | > 57 µM |  | 
39 | Cn1c(SCC(=O)Nc2nncs2)nnc1C1CC1 [MLS001060429] |  | > 57 µM |  |  |  | > 57 µM |  | 
